Source: patent US20040067923A1, “Use of biogenic estriol sulfamate prodrugs for treatment of autoimmune diseases” (priority 2002, published 2004)

Experiments:
[1] = tested on: ovariectomised Wistar rats
Procedure: Adult Wistar rats (6 months old) were ovariectomised and orally treated with estriol-3-O-sulfamate, reference compound and vehicle, respectively. Effects of treatment on uterine weight after 28 days of treatment were determined.

[2] = tested on: ovariectomised Wistar rats; settings: 28 days
Procedure: Adult Wistar rats (6 months old) were ovariectomised and orally treated with estriol-3-O-sulfamate, reference compound and vehicle, respectively. Effects on bone mineral density after 28 days of treatment were determined.

[3] = Heithecker et al., 1991; cited from earlier work
[4] = Head et al., 1998; cited from earlier work
[5] = 12 mg/day, Lindsay et al., 1979; cited from earlier work
[6] = ovariectomised Wistar rats, 28 days

| SMILES | systemic estrogen activity after oral application compared with estriol ([1]; conclusion based on Examples 1, 2 and 3) | oral dose to increase the uterine weight to basal level [1, 6] [μg/animal/day] | potency relative to estriol administered orally, uterine weight test ([1]; ovariectomised Wistar rats, oral) | uterine weight dose relative to dose showing osteoprotective effects (tissue selectivity) ([1]; ovariectomised Wistar rats, oral, 28 days) | oral dose at which the loss in bone mineral density could be nearly restored [2] [μg/animal/day] | half-life [3] [h] | bone sparing effect at doses used for oral application of estriol-3-sulfamate [2] | oral amount needed to achieve comparable serum levels of estriol as after intravaginal application [4] | osteoprotective effects after oral administration [5] |
| --- | --- | --- | --- | --- | --- | --- | --- | --- | --- |
| C[C@]12CC[C@@H]3c4ccc(OS(N)(=O)=O)cc4CC[C@H]3[C@@H]1C[C@@H](O)[C@@H]2O [estriol-3-sulfamate] | much higher systemic estrogen activity | 100 | about 3 fold | ten times more | 10 | – | – | – | – |
| C[C@]12CC[C@@H]3c4ccc(O)cc4CC[C@H]3[C@@H]1C[C@@H](O)[C@@H]2O [estriol] | – | 300 | – | – | – | 1.5 to 5.3 | no bone sparing effect | ten times more | not able to show the osteoprotective effects |
